Values quoted from earlier work, collected in patent US20080009419A1, “GENETIC MODELS FOR STRATIFICATION OF CANCER RISK” (INTERGENETICS, INC., priority 2006, published 2008).
Read-outs that look alike come from different tables or passages of the source.

Assays:
[1] = for range of peak plasma concentration: single oral dose of 20 mg tamoxifen
[2] = tested on: incidence of breast cancer; conditions: large osteoporosis prevention and treatment study
[3] = following chronic dosing
[4] = tested on: invasive breast cancer incidence; conditions: postmenopausal women at high risk, by mouth once a day
estrogen receptors [5] = conditions: preclinical data
estrogen receptors [6] = conditions: animal test systems
[7] = tested on: rat mammary carcinoma induced by dimethylbenzanthracene (DMBA); conditions: rats
[8] = 10 mg tamoxifen twice daily for 3 months, patients
[9] = 20 mg tamoxifen once daily for 3 months

Compound | range of steady-state plasma concentration [1, 8] [ng/mL] | range of steady-state plasma concentration [1, 9] [ng/mL] | range of peak plasma concentration [1] [ng/mL] | reduction in invasive breast cancer incidence [4] [%] | also measured
CC/C(=C(\c1ccccc1)c1ccc(OCCNC)cc1)c1ccccc1 [N-desmethyl tamoxifen] | 148 to 654 | 152 to 706 | 10 to 20 |  | half-life suggested by time to steady state ([1]; human, in vivo): approximately 14 days
O=C(c1ccc(OCCN2CCCCC2)cc1)c1c(-c2ccc(O)cc2)sc2cc(O)ccc12 [Raloxifene] |  |  |  | 50 | incidence of breast cancer [2]: shown to reduce the incidence of breast cancer; clearance [3]: 40 to 60 L/kg per hour; estrogen antagonism in uterine and breast tissues (estrogen receptors [5]): estrogen antagonist
CC/C(=C(\c1ccccc1)c1ccc(OCCN(C)C)cc1)c1ccccc1.O=C(O)CC(O)(CC(=O)O)C(=O)O [Tamoxifen citrate, (Z)2-[4-(1,2-diphenyl-1-butenyl)phenoxy]-N,N-dimethylethanamine 2-hydroxy-1,2,3-propanetricarboxylate (1:1)] |  |  |  |  | antiestrogenic properties (estrogen receptors [6]): potent antiestrogenic properties
CC/C(=C(\c1ccccc1)c1ccc(OCCN(C)C)cc1)c1ccccc1 [Tamoxifen] | 67 to 183 | 71 to 183 | 35 to 45 | 50 | terminal elimination half-life ([1]; biphasic decline in plasma): 5 to 7 days; DMBA-induced tumors in situ [7]: causes the regression
